Measured values reported in US12090146B2, “Substituted-pyridinyl compounds and uses thereof” (Bionomics Limited, priority 2018, dated 2024).

Legend:
hKv3.2 = target: T1, hKv3.2 (Homo sapiens, UniProt Q96PR1); experiment: Automated patch clamp (Patchliner) whole-cell electrophysiology, Kv3.2; format: cell-based; details: 10 μM compound, CHO-K1 cells stably expressing hKv3.2; for activation at 10 µM: % potentiation of peak current at −10 mV voltage step vs vehicle; for Kv3.2 Activity at 10 μM Voltage Shift (mV): voltage shift of the IV curve at V1/2
T1 construct: expressed in transfected cells
T1 sequence (Q96PR1 1-638): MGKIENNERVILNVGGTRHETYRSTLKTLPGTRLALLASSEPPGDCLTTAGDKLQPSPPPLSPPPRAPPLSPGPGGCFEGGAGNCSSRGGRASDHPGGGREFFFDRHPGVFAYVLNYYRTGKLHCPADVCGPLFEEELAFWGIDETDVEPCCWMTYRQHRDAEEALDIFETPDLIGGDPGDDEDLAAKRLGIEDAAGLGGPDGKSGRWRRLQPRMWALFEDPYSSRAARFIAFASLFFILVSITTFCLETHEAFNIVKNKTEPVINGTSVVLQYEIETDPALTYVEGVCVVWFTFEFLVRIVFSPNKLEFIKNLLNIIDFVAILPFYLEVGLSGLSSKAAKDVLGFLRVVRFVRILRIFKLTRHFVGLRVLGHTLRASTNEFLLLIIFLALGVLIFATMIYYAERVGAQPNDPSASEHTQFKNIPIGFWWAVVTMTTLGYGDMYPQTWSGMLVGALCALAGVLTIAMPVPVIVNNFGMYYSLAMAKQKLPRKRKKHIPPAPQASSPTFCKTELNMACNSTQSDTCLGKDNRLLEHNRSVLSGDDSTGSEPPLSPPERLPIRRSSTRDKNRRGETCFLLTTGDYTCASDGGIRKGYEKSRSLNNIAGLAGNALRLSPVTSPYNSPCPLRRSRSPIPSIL
Description: (§1) hKv3.1, hKv3.2, hKv3.3, and hKv3.4 were stably expressed in CHO-K1 (Chinese hamster ovary) cells and kept under constant antibiotic selection. For in vitro assays, cells were maintained in appropriate growth medium at 37° C. and 5% CO2 in a humidified incubator.
(§2) hKv3.X expressing cells were plated in T-25 flasks for 3-4 days at 37° C. (no selection antibiotic) prior to use and grown to 80% confluence. Cells were washed twice with PBS (calcium and magnesium free) and detached with a 5-minute treatment at 37° C. with 2-3 mls of Accutase®. Cells were collected, and flask was washed in CHO-SFM II media (Life Technologies Gibco), centrifuged for 2 minutes at ˜110×g and resuspended to obtain a single cell suspension of ˜2-3×10^6 cells/ml.
(§3) The intracellular solution contained the following (in mM): KCl 50, NaCl 10, KF 60, EGTA 20, HEPES 10, adjusted to pH 7.2 with KOH and an osmolarity of 285 mOsmol. Seal enhancer was purchased from Nanion (80 mM NaCl, 3 mM KCl, 10 mM MgCl2, 35 mM CaCl2), 10 mM HEPES, pH7.4, 298 mOsmol. The external solution contained (in mM): NaCl 140, KCl 4, CaCl2) 2, MgCl2 1, HEPES 10, Glucose 5, adjusted to pH7.4 and an osmolarity of 298 mOsmol.
(§4) All compounds were initially tested at 10 uM at a final DMSO concentration of 0.33%. Compounds were dissolved in dimethylsulfoxide (DMSO) at a stock concentration of 30 mM. The compound was further diluted 1:10 to give a stock concentration of 3 mM in DMSO. The final assay solution was diluted 1:300 in External solution to give a final concentration of 10 uM. For the DMSO Control Buffer 30 uL of DMSO was added to 10 mL buffer.
(§5) All electrophysiological recordings were performed at ambient temperature (21-23° C.) using automated patch clamp (Patchliner, Nanion Technologies GmbH) in the whole-cell configuration.
(§6) Cell membrane potentials were held at −80 mV, and currents were evoked by voltage steps (1000 ms duration) from −60 to +60 mV in 10 mV increments. This was performed first with vehicle (0.33% DMSO) and then with 10 uM compound, after a 3-minute incubation period. Data was taken from 4 cells per assay.
(§7) The recordings were analysed and selected using peak current amplitude (>100 pA at the −10 mV voltage step) in the absence of compound to eliminate unsuitable cells from analysis. Peak current amplitude was measured and recorded for each voltage step and data was normalised to the maximum current at +60 mV. The normalised Kv3.x currents following addition of the compound were then compared with the currents recorded prior to compound addition (vehicle control). Positive modulation was determined as % potentiation at the voltage step of −10 mV=[current (cmpd)/current (veh)]*100−100. % potentiation ≥50% was considered acceptable. In addition, voltage shift of the IV curve at V1/2 was measured. V1/2 of ≥−5 mV was also considered acceptable. IV curves were plotted in GraphPad Prism (software version 6.0) and fitted with a Boltzmann equation, where V1/2 is the voltage at half-maximal activation.

hKv3.1 = target: T2, hKv3.1 (Homo sapiens, UniProt P48547); experiment: Automated patch clamp (Patchliner) whole-cell electrophysiology, Kv3.1; format: cell-based; details: 10 μM compound, CHO-K1 cells stably expressing hKv3.1; for Kv3.1 Activity at 10 μM Potentiation (%): % potentiation of peak current at −10 mV voltage step vs vehicle; for Kv3.1 Activity at 10 μM Voltage Shift (mV): voltage shift of the IV curve at V1/2
T2 construct: expressed in transfected cells
T2 sequence (P48547 1-511): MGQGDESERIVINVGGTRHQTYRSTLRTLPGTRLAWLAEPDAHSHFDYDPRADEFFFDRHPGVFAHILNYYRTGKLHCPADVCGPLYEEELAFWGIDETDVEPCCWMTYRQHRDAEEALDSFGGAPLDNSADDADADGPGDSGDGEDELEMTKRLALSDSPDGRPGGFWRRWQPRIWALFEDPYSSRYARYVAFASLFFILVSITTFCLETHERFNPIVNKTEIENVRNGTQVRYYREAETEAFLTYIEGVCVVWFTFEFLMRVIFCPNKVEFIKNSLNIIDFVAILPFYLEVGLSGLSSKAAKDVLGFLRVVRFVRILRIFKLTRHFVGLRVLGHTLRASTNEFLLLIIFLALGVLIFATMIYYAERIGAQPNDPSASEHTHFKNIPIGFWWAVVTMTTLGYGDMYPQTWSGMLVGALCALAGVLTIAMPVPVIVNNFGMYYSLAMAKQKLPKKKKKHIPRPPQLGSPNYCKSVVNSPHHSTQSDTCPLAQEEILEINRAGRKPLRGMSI
Description: as §1, §2, §3, §4, §5, §6, §7

Structure (SMILES)	activation at 10 µM (hKv3.2)	Kv3.2 Activity at 10 μM Voltage Shift (mV) (hKv3.2)	Kv3.1 Activity at 10 μM Potentiation (%) (hKv3.1)	Kv3.1 Activity at 10 μM Voltage Shift (mV) (hKv3.1)
COc1cc(Oc2cc(N3C(=O)NC4(CCCC4)C3=O)ccn2)ccc1C [Example 33, 3-[2-(3-methoxy-4-methyl-phenoxy)-4-pyridyl]-1,3-diazaspiro[4.4]nonane-2,4-dione]	22%	−2.72 mV	64%	−5.74 mV
CC[C@@]1(C)NC(=O)N(c2ccnc(Oc3ccc(C)c(OC)c3)c2)C1=O [Example 10, (5R)-5-ethyl-3-[2-(3-methoxy-4-methyl-phenoxy)-4-pyridyl]-5-methyl-imidazolidine-2,4-dione]	21%	−2.67 mV	72%	−5.46 mV
CC1(C)NC(=O)N(c2ccnc(Oc3ccc4c(c3)OC(F)(F)O4)c2)C1=O [Example 9, 3-[2-[(2,2-difluoro-1,3-benzodioxol-5-yl)oxy]-4-pyridyl]-5,5-dimethyl-imidazolidine-2,4-dione]	30%	−3.92 mV	80%	−6.49 mV
CC[C@H]1NC(=O)N(c2cccc(Oc3ccc(C)c(OC)c3)n2)C1=O [Example 48, (5R)-5-ethyl-3-[6-(3-methoxy-4-methyl-phenoxy)-2-pyridyl]imidazolidine-2,4-dione]	61%	−5.3 mV	62%	−4.26 mV
O=C1NC2(CCC2)C(=O)N1c1ccnc(Oc2ccc3c(c2)OC(F)(F)O3)c1 [Example 37, 7-[2-[(2,2-difluoro-1,3-benzodioxol-5-yl)oxy]-4-pyridyl]-5,7-diazaspiro[3.4]octane-6,8-dione]	63%	−3.6 mV	90%	−5.21 mV
COc1cc(Oc2nccc(N3C(=O)NC4(CCCCC4)C3=O)c2F)ccc1C [Example 91, 3-[3-fluoro-2-(3-methoxy-4-methyl-phenoxy)-4-pyridyl]-1,3-diazaspiro[4.5]decane-2,4-dione]	137%	−6.75 mV	150%	−10.63 mV
CC[C@@]1(C)NC(=O)N(c2ccnc(Oc3ccc4c(c3)CCC4)c2)C1=O [Example 13, (5R)-5-ethyl-3-(2-indan-5-yloxy-4-pyridyl)-5-methyl-imidazolidine-2,4-dione]	48%	−4.48 mV	27%	−3.9 mV
CC[C@@]1(C)NC(=O)N(c2cccc(Oc3ccc(C)c(OC)c3)n2)C1=O [Example 58, (5R)-5-ethyl-3-[6-(3-methoxy-4-methyl-phenoxy)-2-pyridyl]-5-methyl-imidazolidine-2,4-dione]	33%	−2.6 mV	35%	−5.32 mV
O=C1NC2(CCCC2)C(=O)N1c1ccnc(Oc2ccc3c(c2)OC(F)(F)O3)c1 [Example 36, 3-[2-[(2,2-difluoro-1,3-benzodioxol-5-yl)oxy]-4-pyridyl]-1,3-diazaspiro[4.4]nonane-2,4-dione]	43%	−4.8 mV	85%	−6.21 mV
COc1cc(Oc2nccc(N3C(=O)NC4(CCCC4)C3=O)c2F)ccc1C [Example 90, 3-[3-fluoro-2-(3-methoxy-4-methyl-phenoxy)-4-pyridyl]-1,3-diazaspiro[4.4]nonane-2,4-dione]	121%	−7.43 mV	217%	−10.39 mV
COc1cc(Oc2cc(N3C(=O)NC4(CCC4)C3=O)ccn2)ccc1C [Example 34, 7-[2-(3-methoxy-4-methyl-phenoxy)-4-pyridyl]-5,7-diazaspiro[3.4]octane-6,8-dione]	25%	−1.25 mV	27%	−4.19 mV
CC1(C)NC(=O)N(c2ccnc(Oc3ccc4c(c3)CCC4)c2)C1=O [Example 3, 3-(2-indan-5-yloxy-4-pyridyl)-5,5-dimethyl-imidazolidine-2,4-dione]	66%	−6.71 mV	58%	−4.65 mV
CC1(C)NC(=O)N(c2ccc(F)c(Oc3ccc4c(c3)OC(F)(F)O4)n2)C1=O [Example 84, 3-[6-[(2,2-difluoro-1,3-benzodioxol-5-yl)oxy]-5-fluoro-2-pyridyl]-5,5-dimethyl-imidazolidine-2,4-dione]	14%	−1.69 mV	30%	−2.27 mV
CC[C@@]1(C)NC(=O)N(c2cccc(Oc3cc(OC)cc(OC)c3)n2)C1=O [Example 70, (5R)-3-[6-(3,5-dimethoxyphenoxy)-2-pyridyl]-5-ethyl-5-methyl-imidazolidine-2,4-dione]	34%	−2.42 mV	44%	−2.08 mV
COc1cc(Oc2cc(N3C(=O)NC(C)(C)C3=O)ccn2)ccc1Cl [Example 8, 3-[2-(4-chloro-3-methoxy-phenoxy)-4-pyridyl]-5,5-dimethyl-imidazolidine-2,4-dione]	22%	−2.39 mV	32%	−4.09 mV
